Laboratory results reported in patent US8148391B2 (Cephalon, Inc., priority 2006, dated 2012).
Read-outs that look alike come from different tables or passages of the source. Each block holds one compound with its values, some of them ahead of it.

Columns and labels:
[1] = biological target: T1, baculovirus-expressed ALK (Homo sapiens, UniProt Q9UM73); test: ALK Kinase Assay (ELISA-type, time-resolved fluorescence); format: biochemical
T1 construct: host or cells: baculovirus expression system
How it was run: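 Substrate coating: phospholipase C-γ, 10 μg/mL in TBS. Kinase step: 30 ng/ml ALK, 15 min, 37° C. Detection and analysis: Eu-N1 PT66 antibody, with IC50 fitted as a sigmoidal variable-slope dose-response curve.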

[2] = biological target: T2, c-Met (cytoplasmic domain) (Homo sapiens, UniProt P08581); test: c-Met Kinase Assay (same methods as for ALK, with modifications); format: biochemical
T2 construct: 10 ng/mL c-Met (cytoplasmic domain, Invitrogen Corporation #PV3143); purchased Invitrogen Corporation PV3143
T2 sequence (P08581 956-1390 limits assumed): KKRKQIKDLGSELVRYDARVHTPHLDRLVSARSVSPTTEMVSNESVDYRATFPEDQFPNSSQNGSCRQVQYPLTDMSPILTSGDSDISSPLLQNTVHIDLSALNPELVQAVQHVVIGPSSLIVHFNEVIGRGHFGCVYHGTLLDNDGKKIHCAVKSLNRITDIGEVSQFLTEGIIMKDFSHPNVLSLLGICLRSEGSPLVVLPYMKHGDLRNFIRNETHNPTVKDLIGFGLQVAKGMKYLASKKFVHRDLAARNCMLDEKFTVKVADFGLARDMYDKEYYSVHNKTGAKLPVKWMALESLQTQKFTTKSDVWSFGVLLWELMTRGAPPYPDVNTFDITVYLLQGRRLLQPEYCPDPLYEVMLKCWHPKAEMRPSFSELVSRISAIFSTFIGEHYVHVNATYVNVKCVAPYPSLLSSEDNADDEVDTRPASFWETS
How it was run: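 Wells were coated with 10 μg/mL phospholipase C-γ substrate in TBS, and reactions were started with 10 ng/mL c-Met cytoplasmic domain and run at 37° C for 15 minutes. Phosphorylated product was detected with Eu-N1-labeled PT66 antibody. IC50 values came from sigmoidal variable-slope fits of percent inhibition versus log compound concentration.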

[3] = 1 μM ATP (Km level), read-out: ALK Activity (ALK Kinase Inhibition, IC50)
[4] = 1 μM ATP (Km level), read-out: cMet Activity (c-Met Kinase Inhibition, IC50)
[5] = 1 μM ATP (Km level), 30 ng/ml ALK, 37° C., 15 minutes, read-out: ALK Activity (ALK kinase inhibition, IC50 class)
[6] = 1 μM ATP (Km level), 10 ng/mL c-Met, read-out: cMet Activity (c-Met kinase inhibition, IC50 class)
[7] = ALK kinase inhibition, 1 μM ATP (Km level), read-out: ALK Activity
[8] = c-Met kinase inhibition, 1 μM ATP (Km level), read-out: cMet Activity
[9] = ALK kinase inhibition, 1 μM ATP, read-out: ALK Activity
[10] = c-Met kinase inhibition, 1 μM ATP, read-out: cMet Activity

T1 sequence (Q9UM73 19-1620): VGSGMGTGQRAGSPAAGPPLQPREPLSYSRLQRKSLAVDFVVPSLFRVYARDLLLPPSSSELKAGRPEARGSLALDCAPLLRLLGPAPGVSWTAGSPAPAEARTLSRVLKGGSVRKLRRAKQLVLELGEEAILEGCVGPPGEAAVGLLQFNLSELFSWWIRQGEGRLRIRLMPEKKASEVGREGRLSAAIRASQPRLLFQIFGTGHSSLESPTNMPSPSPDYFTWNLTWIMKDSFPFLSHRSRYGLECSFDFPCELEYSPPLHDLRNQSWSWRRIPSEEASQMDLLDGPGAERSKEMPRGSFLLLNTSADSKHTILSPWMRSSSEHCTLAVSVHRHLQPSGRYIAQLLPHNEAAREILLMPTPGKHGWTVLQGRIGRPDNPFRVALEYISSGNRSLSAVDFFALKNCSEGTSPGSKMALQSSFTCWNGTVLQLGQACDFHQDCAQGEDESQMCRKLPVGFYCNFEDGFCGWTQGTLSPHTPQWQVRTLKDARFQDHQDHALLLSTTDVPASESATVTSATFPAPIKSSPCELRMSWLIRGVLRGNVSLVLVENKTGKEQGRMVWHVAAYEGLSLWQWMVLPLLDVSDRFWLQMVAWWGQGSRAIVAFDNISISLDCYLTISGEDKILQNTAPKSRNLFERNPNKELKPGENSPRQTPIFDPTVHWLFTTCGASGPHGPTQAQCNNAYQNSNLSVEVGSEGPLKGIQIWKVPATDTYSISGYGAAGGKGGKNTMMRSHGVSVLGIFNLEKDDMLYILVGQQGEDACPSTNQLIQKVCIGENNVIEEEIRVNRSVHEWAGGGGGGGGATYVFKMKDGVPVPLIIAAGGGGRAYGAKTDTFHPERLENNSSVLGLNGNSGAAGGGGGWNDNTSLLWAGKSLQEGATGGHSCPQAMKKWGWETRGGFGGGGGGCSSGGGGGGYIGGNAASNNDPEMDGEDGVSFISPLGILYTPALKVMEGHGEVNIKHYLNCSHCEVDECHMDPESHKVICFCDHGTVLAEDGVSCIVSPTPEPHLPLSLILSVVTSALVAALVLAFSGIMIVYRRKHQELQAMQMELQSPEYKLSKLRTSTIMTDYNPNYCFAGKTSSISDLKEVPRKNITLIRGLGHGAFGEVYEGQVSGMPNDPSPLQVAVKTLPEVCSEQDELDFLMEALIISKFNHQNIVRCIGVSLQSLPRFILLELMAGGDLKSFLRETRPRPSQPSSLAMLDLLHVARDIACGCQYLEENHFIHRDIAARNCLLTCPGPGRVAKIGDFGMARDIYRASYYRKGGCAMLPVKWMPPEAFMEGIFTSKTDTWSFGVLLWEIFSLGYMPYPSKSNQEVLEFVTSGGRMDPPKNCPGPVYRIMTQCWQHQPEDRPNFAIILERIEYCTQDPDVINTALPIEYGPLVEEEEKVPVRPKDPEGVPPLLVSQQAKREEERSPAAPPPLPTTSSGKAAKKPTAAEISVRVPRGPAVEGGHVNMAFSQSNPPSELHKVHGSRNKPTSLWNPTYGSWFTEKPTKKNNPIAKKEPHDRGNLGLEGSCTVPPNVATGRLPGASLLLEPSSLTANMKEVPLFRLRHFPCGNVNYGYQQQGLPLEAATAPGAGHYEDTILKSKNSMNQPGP

IC50 [1, 3]: < 100 nM | IC50 [2, 4]: > 10000 nM
Compound: COc1cc2c(cc1Nc1ncc(Cl)c(N[C@@H]3CCCC[C@H]3NS(C)(=O)=O)n1)CCN(CC(F)F)CC2 [Example 762, N-((1R,2R)-2-{5-Chloro-2-[3-(2,2-difluoro-ethyl)-8-methoxy-2,3,4,5-tetrahydro-1H-benzo[d]azepin-7-ylamino]-pyrimidin-4-ylamino}-cyclohexyl)-methanesulfonamide]

IC50 [1, 3]: < 100 nM | IC50 [2, 4]: > 10000 nM
Compound: COc1c(Nc2ncc(Cl)c(N[C@@H]3CCCC[C@H]3NS(C)(=O)=O)n2)ccc2c1CCC(NCCO)CC2 (single isomer, unassigned) [Example 699]

IC50 [1, 9]: 100 to 1000 nM | IC50 [2, 10]: 1000 to 10000 nM
Compound: CNC(=O)c1cccc(F)c1Nc1nc(Nc2ccc3c(c2)-n2c(C)cnc2CCC3)ncc1Cl [Example 1843, 2-[5-Chloro-2-(1-methyl-5,6-dihydro-4H-3,10b-diaza-benzo[e]azulen-9-ylamino)-pyrimidin-4-ylamino]-3-fluoro-N-methyl-benzamide]

IC50 [1, 7]: > 10000 nM | IC50 [2, 8]: > 10000 nM
Compound: CN1CCN(C)c2cccc(Nc3ncc(Cl)c(Nc4ccccc4NS(C)(=O)=O)n3)c2C1=O [Example 215, N-{2-[5-Chloro-2-(1,4-dimethyl-5-oxo-2,3,4,5-tetrahydro-1H-benzo[e][1,4]diazepin-6-ylamino)-pyrimidin-4-ylamino]-phenyl}-methanesulfonamide]

IC50 [1, 5]: < 100 nM | IC50 [2, 6]: 100 to 1000 nM
Compound: C#CCN(C)C(=O)c1ccccc1Nc1nc(Nc2ccc3c(c2)CCN(CCOC)CC3)ncc1Cl [Example 1389, {5-Chloro-2-[3-(2-methoxy-ethyl)-2,3,4,5-tetrahydro-1H-benzo[d]azepin-7-ylamino]-pyrimidin-4-ylamino}-N-methyl-N-prop-2-ynyl-benzamide]

IC50 [1, 3]: 100 to 1000 nM | IC50 [2, 4]: > 10000 nM
Compound: N-((1R,2R)-2-{5-Chloro-2-[7-(2,2,2-trifluoro-ethylamino)-6,7,8,9-tetrahydro-5H-benzocyclohepten-2-ylamino]-pyrimidin-4-ylamino}-cyclohexyl)-methanesulfonamide [Example 688]

IC50 [1, 5]: < 100 nM | IC50 [2, 6]: 100 to 1000 nM
Compound: CN(C)S(=O)(=O)c1ccccc1Nc1nc(Nc2ccc3c(c2)CCC(N2CCOCC2)CC3)ncc1Cl (stereo not drawn) [Example 1032, 2-[5-Chloro-2-(7-morpholin-4-yl-6,7,8,9-tetrahydro-5H-benzocyclohepten-2-ylamino)-pyrimidin-4-ylamino]-N,N-dimethyl-benzenesulfonamide]

IC50 [1, 9]: < 100 nM | IC50 [2, 10]: > 10000 nM
Compound: COc1cc2c(cc1Nc1ncc(Cl)c(N[C@@H]3CCCC[C@H]3NS(C)(=O)=O)n1)CCN(CCO)CC2 [Example 1531, N-((1R,2R)-2-{5-Chloro-2-[3-(2-hydroxy-ethyl)-8-methoxy-2,3,4,5-tetrahydro-1H-3-benzazepin-7-ylamino]-pyrimidin-4-ylamino}-cyclohexyl)-methanesulfonamide]

IC50 [1, 9]: 100 to 1000 nM | IC50 [2, 10]: > 10000 nM
Compound: COc1cc2c(cc1Nc1ncc(Cl)c(Nc3ccccc3S(=O)(=O)N(C)C)n1)N(CC(=O)N(C)C)C(=O)CN(CC(=O)N(C)C)C2 [Example 1656, 2-{8-[5-Chloro-4-(2-dimethylsulfamoyl-phenylamino)-pyrimidin-2-ylamino]-1-dimethylcarbamoylmethyl-7-methoxy-2-oxo-1,2,3,5-tetrahydro-benzo[e][1,4]diazepin-4-yl}-N,N-dimethyl-acetamide]

More lines, now with the values behind:

Compound: COc1cc2c(cc1Nc1ncc(Cl)c(Nc3ccc(N4CCOCC4)cc3OC)n1)CCN(C(=O)CN(C)C)CC2 [Example 1121, 1-{7-[5-Chloro-4-(2-methoxy-4-morpholin-4-yl-phenylamino)-pyrimidin-2-ylamino]-8-methoxy-1,2,4,5-tetrahydro-benzo[d]azepin-3-yl}-2-dimethylamino-ethanone]
IC50 [1, 5]: < 100 nM | IC50 [2, 6]: > 10000 nM

Compound: COCCN1CCc2ccc(Nc3ncc(Cl)c(N[C@H]4CC[C@@H](N(CC#N)S(C)(=O)=O)CC4)n3)cc2CC1 [Example 1384, cis-N-(4-{5-Chloro-2-[3-(2-methoxy-ethyl)-2,3,4,5-tetrahydro-1H-benzo[d]azepin-7-ylamino]-pyrimidin-4-ylamino}-cyclohexyl)-N-cyanomethyl-methanesulfonamide]
IC50 [1, 5]: 100 to 1000 nM | IC50 [2, 6]: 1000 to 10000 nM

Compound: COc1cc2c(cc1Nc1ncc(Cl)c(N[C@@H]3CCCC[C@H]3NS(C)(=O)=O)n1)N(C)CCN(C[C@@H](O)C(F)(F)F)C2 [Example 492, N-((1R,2R)-2-{5-Chloro-2-[7-methoxy-1-methyl-4-((R)-3,3,3-trifluoro-2-hydroxy-propyl)-2,3,4,5-tetrahydro-1H-benzo[e][1,4]diazepin-8-ylamino]-pyrimidin-4-ylamino}-cyclohexyl)-methanesulfonamide]
IC50 [1, 7]: < 100 nM | IC50 [2, 8]: > 10000 nM

Compound: CNC(=O)c1ccccc1Nc1nc(Nc2ccc(OC)c3c2NC(=O)CCC3)ncc1Cl [Example 18, 2-[5-Chloro-2-(6-methoxy-2-oxo-2,3,4,5-tetrahydro-1H-benzo[b]azepin-9-ylamino)-pyrimidin-4-ylamino]-N-methyl-benzamide]
IC50 [1, 7]: < 100 nM | IC50 [2, 8]: 1000 to 10000 nM

Compound: CNC(=O)c1cccc(Cl)c1Nc1nc(Nc2ccc3c(c2)C(C)(C)NC(=O)CC3)ncc1Cl [Example 1834, 3-Chloro-2-(5-chloro-2-(1,1-dimethyl-3-oxo-2,3,4,5-tetrahydro-1H-benzo[c]azepin-8-ylamino)pyrimidin-4-ylamino)-N-methylbenzamide]
IC50 [1, 9]: < 100 nM | IC50 [2, 10]: < 100 nM

Compound: CNC(=O)c1sccc1Nc1nc(Nc2ccc3c(c2)NC(=O)CN(C(C)=O)C3)ncc1Cl [Example 1849, 3-[2-(4-Acetyl-2-oxo-2,3,4,5-tetrahydro-1H-benzo[e][1,4]diazepin-8-ylamino)-5-chloro-pyrimidin-4-ylamino]-thiophene-2-carboxylic acid methyl amide]
IC50 [1, 9]: 100 to 1000 nM | IC50 [2, 10]: < 100 nM

Compound: CNC(=O)c1ccccc1Nc1nc(Nc2ccc3c(c2OC)CCC(N2CCOCC2)CC3)ncc1Cl (racemic) [Example 915, 2-[5-Chloro-2-(1-methoxy-7-morpholin-4-yl-6,7,8,9-tetrahydro-5H-benzocyclohepten-2-ylamino)-pyrimidin-4-ylamino]-N-methyl-benzamide]
IC50 [1, 3]: < 100 nM | IC50 [2, 4]: 1000 to 10000 nM

Compound: COc1cc(N2CCOCC2)ccc1Nc1nc(Nc2ccc3c(c2)C2CCC3CN(C(=O)C(F)(F)F)C2)ncc1Cl (stereo not drawn) [Example 290, 2-{4-[5-Chloro-4-(2-methoxy-4-morpholin-4-yl-phenylamino)-pyrimidin-2-ylamino]-10-aza-tricyclo[6.3.2.0*2,7*]trideca-2,4,6-trien-10-yl}-2,2,2-trifluoro-ethanone]
IC50 [1, 7]: 100 to 1000 nM | IC50 [2, 8]: > 10000 nM

Compound: COc1ccc(Nc2nc(Nc3ccc4c(c3)CCC(N3CCOCC3)CC4)ncc2Cl)c(-n2cccn2)c1 (stereo not drawn) [Example 622, 5-Chloro-N*4*-(4-methoxy-2-pyrazol-1-yl-phenyl)-N*2*-(7-morpholin-4-yl-6,7,8,9-tetrahydro-5H-benzocyclohepten-2-yl)-pyrimidine-2,4-diamine]
IC50 [1, 3]: < 100 nM | IC50 [2, 4]: 1000 to 10000 nM

Compound: CCN1C(=O)CCC(C)(C)c2ccc(Nc3ncc(Cl)c(Nc4ccc(N5CCOCC5)cc4OC)n3)cc21 [Example 1587, 8-[5-Chloro-4-(2-methoxy-4-morpholin-4-yl-phenylamino)-pyrimidin-2-ylamino]-1-ethyl-5,5-dimethyl-1,3,4,5-tetrahydro-benzo[b]azepin-2-one]
IC50 [1, 9]: < 100 nM | IC50 [2, 10]: 1000 to 10000 nM

Compound: COc1cc2c(cc1Nc1ncc(Cl)c(Nc3ccc(N4CCOCC4)cc3OC)n1)C(C)(C)CCC(=O)N2 [Example 1672, 7-[5-Chloro-4-(2-methoxy-4-morpholin-4-yl-phenylamino)-pyrimidin-2-ylamino]-8-methoxy-5,5-dimethyl-1,3,4,5-tetrahydro-benzo[b]azepin-2-one]
IC50 [1, 9]: 100 to 1000 nM | IC50 [2, 10]: > 10000 nM

Compound: CCN1C(=O)CCCc2ccc(Nc3ncc(Cl)c(Nc4c(C)cccc4C(=O)NC)n3)cc21 [Example 360, 2-[5-Chloro-2-(1-ethyl-2-oxo-2,3,4,5-tetrahydro-1H-benzo[b]azepin-8-ylamino)-pyrimidin-4-ylamino]-3,N-dimethyl-benzamide]
IC50 [1, 7]: 1000 to 10000 nM | IC50 [2, 8]: < 100 nM

Compound: CNC(=O)c1cccc(F)c1Nc1nc(Nc2ccc3c(c2)CNC(=O)CCN3C(C)=O)ncc1Cl [Example 1224, 2-[2-(1-Acetyl-4-oxo-1,2,3,4,5,6-hexahydro-benzo[b][1,5]diazocin-8-ylamino)-5-chloro-pyrimidin-4-ylamino]-3-fluoro-N-methyl-benzamide]
IC50 [1, 5]: < 100 nM | IC50 [2, 6]: < 100 nM

Compound: CCN1CCc2ccc(Nc3ncc(Cl)c(Nc4ccccc4C(=O)NC)n3)c(OC)c2CC1 [Example 234, 2-[5-Chloro-2-(3-ethyl-6-methoxy-2,3,4,5-tetrahydro-1H-benzo[d]azepin-7-ylamino)-pyrimidin-4-ylamino]-N-methyl-benzamide]
IC50 [1, 7]: < 100 nM | IC50 [2, 8]: > 10000 nM

Compound: CCN1C(=O)CCCc2c1ccc(Nc1ncc(Cl)c(N[C@H]3[C@@H](C(N)=O)[C@@H]4C=C[C@H]3C4)n1)c2OC [Example 133, (1S,2S,3R,4R)-3-[5-Chloro-2-(1-ethyl-6-methoxy-2-oxo-2,3,4,5-tetrahydro-1H-benzo[b]azepin-7-ylamino)-pyrimidin-4-ylamino]-bicyclo[2.2.1]hept-5-ene-2-carboxylic acid amide]
IC50 [1, 7]: < 100 nM | IC50 [2, 8]: > 10000 nM
